pEC50: −log10 of the molar value. Where “and” joins values, the source holds several entries; their conditions need not be identical. Equal entries are not always repeated. Where two headings read alike, the source gives them in different places.

Data set [1] has as its system MDCK cells co-expressing GFP-K-RASG12V and mCherry-CAAX. Kind of data set: Cytotoxicity in mislocalization screen (death of all cells in well). Conditions: drug caused death of all cells in well at 30 μM.
Data set [2] has as its target mGFP-K-RASG12V (Homo sapiens (Human), UniProt P01116, G12V). As to the kind of experiment: K-Ras mislocalization assay (confocal microscopy, Manders coefficient). Conditions: for IC50: 48 h treatment, read-out: IC50 (μM), KRASG12V mislocalization; for Emax: maximal effect, Manders coefficient. It counts as cell-based. The arrangement: key to Emax: Manders coefficient: fraction of mCherry-CAAX co-localizing with GFP-K-Ras. How it is done:
Madine Darby Canine Kidney epithelial cells (MDCK) stably co-expressing mGFP-tagged full length oncogenic mutant K-Ras (GFP—K-RASG12V) or mGFP-LactC2 (peptide probe for phosphatidylserine) and mCherry-tagged to the amino acids 179-189 of H-RasC181S, C184S (mCherry-CAAX, localizes primarily to endomembranes) were grown in DMEM-high glucose/sodium pyruvate/10% FBS. The medium was supplemented with 1× Penicillin/Streptomycin for fluorescence microscopy assays, to avoid any microbial contamination from the test compounds added. KLE and Hec50 cells were maintained in DMEM-F-12 medium supplemented with 10% FBS. Hec-1A and Hec-1B cells were grown in McCoy's 5a medium supplemented with 10% FBS. ESS-1 cells were grown in RPMI 1640 medium supplemented with 20% FBS. MPanc96 cells were grown in DMEM supplemented with 10% FBS, MiaPaCa-2 cells in DMEM supplemented with 10% FBS and 2.5% horse serum and all other cell lines were grown in RPMI 1640 supplemented with 10% FBS. All cancer cell media were supplemented with ×Penicillin/Streptomycin. All cell lines were grown at 37° C. with 5% CO2.
MDCK co-expressing GFP—K-RASG12V or LactC2 and mCherry-CAAX were grown on coverslips, treated with 0.1% vehicle (DMSO) or various concentrations of drugs for 48 h, and fixed with 4% paraformaldehyde. The coverslips were mounted in mowiol and imaged by confocal microscopy (Nikon A1) using a 60× objective. Using ImageJ software v1.42q, images were converted to 8-bit, and a threshold to a control pixel of each image was set. As a measure of K-Ras/LactC2 mislocalization, the fraction of mCherry-CAAX co-localizing with mGFP-K-RASG12V was calculated using a Manders coefficient plugin downloaded from Wright Cell Image Facility. The fraction of mCherry-CAAX co-localizing with mGFP-RASG12V (Mander's coefficient) is proportional to K-Ras mislocalization.

The mark [3] stands for this setting: batch 4 compounds, MDCK cells, 48 h, title calls it IC50, read-out: EC50.

Broadly, the IC50 is the concentration that gives 50% inhibition. `COc1ccc([C@@H](C)N(CC=C(c2ccccc2)c2ccccc2)CCN(C)C)cc1` [NY0435, (R)-N^1-(3,3-diphenylallyl)-N^1-(1-(4-methoxyphenyl)ethyl)-N^2,N^2-dimethylethane-1,2-diamine]: the “Cytotoxic at 30 μM” value in data set [1] was “Yes”. For the same compound, the IC50 in data set [2] (MDCK cells, listed as 12a) turned out to be 11.2 µM; in data set [2] (MDCK cells) it was 11.2 µM. For the same compound, the Emax was determined as 0.658 in data set [2] (MDCK cells, 48 h) and 0.66 ± 0.01 in data set [2] (MDCK cells, 48 h, listed as 12a).
Consider `COc1ccc([C@H](C)N(CC=C(c2ccccc2)c2ccccc2)CCN2CC2)cc1` [NY0436], for which, in data set [1], the “Cytotoxic at 30 μM” value was “No”. Also, the IC50 in data set [2] (MDCK cells) was 14 µM. Besides, in data set [2] (MDCK cells, 48 h), the Emax amounted to 0.716.
With `COc1ccc([C@@H](C)N(CC=C(c2ccccc2)c2ccccc2)CCCC=O)cc1` [NY0445, (R)-4-((3,3-diphenylallyl)(1-(4-methoxyphenyl)ethyl)amino)butanal], in data set [1], the “Cytotoxic at 30 μM” value is given as “No”. In addition, the IC50 in data set [2] (MDCK cells) came out at 2.02 µM. The compound also registered an Emax in data set [2] (MDCK cells, 48 h) of 0.694.
`COc1ccc([C@@H](C)N(CC=C(c2ccccc2)c2ccccc2)CCCCO)cc1` [NY0448, (R)-4-((3,3-diphenylallyl)(1-(4-methoxyphenyl)ethyl)amino)butan-1-ol]: in data set [1], the “Cytotoxic at 30 μM” value is on record as “Yes”. Also, the IC50 in data set [2] (MDCK cells) worked out at 12.7 µM. The Emax in data set [2] (MDCK cells, 48 h) was found to be 0.777.
`COc1ccc([C@@H](C)N(CC=C(c2ccccc2)c2ccccc2)CCCCN2CCN(C)CC2)cc1` [NY0449, (R)-N-(3,3-diphenylallyl)-N-(1-(4-methoxyphenyl)ethyl)-4-(4-methylpiperazin-1-yl)butan-1-amine]: the “Cytotoxic at 30 μM” value in data set [1] is “Yes”. Moreover, the “KRAS PM localization inhibition activity (in words)” value in data set [2] is on record as “significantly decreased potency”. For the same compound, the Emax in data set [2] (MDCK cells, 48 h) amounted to 0.810; in data set [2] (MDCK cells, 48 h, listed as 25), 0.81 ± 0.03.
For `COc1cccc([C@@H](C)N(CC=C(c2ccccc2)c2ccccc2)CCN2CCN(C)CC2)c1` [NY0452, (R)-N-(1-(3-methoxyphenyl)ethyl)-N-(2-(4-methylpiperazin-1-yl)ethyl)-3,3-diphenylprop-2-en-1-amine], the “Cytotoxic at 30 μM” value in data set [1] is recorded as “Yes”. In addition, the IC50 in data set [2] (MDCK cells, listed as 15c) was 2.8 µM; in data set [2] (MDCK cells), 2.81 µM. The Emax was 0.752 in data set [2] (MDCK cells, 48 h) and 0.75 ± 0.04 in data set [2] (MDCK cells, 48 h, listed as 15c).
As to `COc1ccc([C@H](C)N(CC=C(c2ccccc2)c2ccccc2)CCN2CCN(C)CC2)cc1` [NY0454, (S)-N-(1-(4-methoxyphenyl)ethyl)-N-(2-(4-methylpiperazin-1-yl)ethyl)-3,3-diphenylprop-2-en-1-amine], the “Cytotoxic at 30 μM” value in data set [1] is “Yes”. Also, the IC50 came to 1.2 µM in data set [2] (MDCK cells, listed as 15a) and 1.24 µM in data set [2] (MDCK cells). Further, the Emax in data set [2] (MDCK cells, 48 h) was 0.827; in data set [2] (MDCK cells, 48 h, listed as 15a) it was 0.83 and 0.83 ± 0.02. In data set [2] (versus 12f (NY0244)), the “fold potency loss / decreased potency” value worked out at 12 fold.
In general, pEC50 refers to −log10 of the EC50, conventionally taken in molar units. Consider `COc1ccc([C@@H](C)N(CC=C(c2ccccc2)c2ccccc2)CCCO)cc1` [NY0479, (R)-3-((3,3-diphenylallyl)(1-(4-methoxyphenyl)ethyl)amino)propan-1-ol], for which the “Cytotoxic at 30 μM” value in data set [1] is given as “No”. Also, in data set [2] (setting [3]), the negative-log EC50 (pEC50) is 5.80. This compound returned an Emax in data set [2] (MDCK cells, 48 h) of 0.871.
Consider `COc1ccc([C@@H](C)N(CC=C(c2ccccc2)c2ccccc2)CCCN2CCCC2)cc1` [NY0502, (R)-N-(1-(4-methoxyphenyl)ethyl)-3,3-diphenyl-N-(3-(pyrrolidin-1-yl)propyl)prop-2-en-1-amine], for which, in data set [1], the “Cytotoxic at 30 μM” value was “Yes”. The pEC50 in data set [2] (setting [3]) was 5.75. The compound also displayed an Emax in data set [2] (MDCK cells, 48 h) of 0.878.
On to `CCNC(=O)N(CC=C(c1ccccc1)c1ccccc1)[C@H](C)c1ccc(OC)cc1` [NY0504, (R)-1-(3,3-diphenylallyl)-3-ethyl-1-(1-(4-methoxyphenyl)ethyl)urea], for which, in data set [1], the “Cytotoxic at 30 μM” value was “No”. For the same compound, the pEC50 in data set [2] (setting [3]) is 6.04. The compound also yielded an Emax in data set [2] (MDCK cells, 48 h) of 0.845.
Take `C[C@H](c1ccc(F)cc1)N(CC=C(c1ccccc1)c1ccccc1)CCN1CCN(C)CC1` [NY0505, (R)-N-(1-(4-fluorophenyl)ethyl)-N-(2-(4-methylpiperazin-1-yl)ethyl)-3,3-diphenylprop-2-en-1-amine]: in data set [1], the “Cytotoxic at 30 μM” value is listed as “Yes”. In data set [2] (MDCK cells), the IC50 is 1.5 µM. The pEC50 in data set [2] (setting [3]) is 5.82. Besides, the Emax stood at 0.832 in data set [2] (MDCK cells, 48 h) and 0.83 ± 0.02 in data set [2] (MDCK cells, 48 h, listed as 15e).
In the case of `CCCCNC(=O)N(CC=C(c1ccccc1)c1ccccc1)[C@H](C)c1ccc(OC)cc1` [NY0507, (R)-3-butyl-1-(3,3-diphenylallyl)-1-(1-(4-methoxyphenyl)ethyl)urea], the “Cytotoxic at 30 μM” value in data set [1] is given as “No”. The pEC50 in data set [2] (setting [3]) is 5.77. In data set [2] (MDCK cells, 48 h), this compound returned an Emax of 0.858.
As for `C(CNC1(c2ccccc2)CCCCC1)=C(c1ccccc1)c1ccccc1` [NY0514, N-(3,3-diphenylallyl)-1-phenylcyclohexan-1-amine], the “Cytotoxic at 30 μM” value in data set [1] was “No”. The compound also had a pEC50 in data set [2] of 5.87. Besides, in data set [2] (MDCK cells, 48 h), the Emax is given as 0.802.
Consider `C[C@H](c1ccc(Cl)cc1)N(CC=C(c1ccccc1)c1ccccc1)CCN1CCN(C)CC1` [NY0518, (R)-N-(1-(4-chlorophenyl)ethyl)-N-(2-(4-methylpiperazin-1-yl)ethyl)-3,3-diphenylprop-2-en-1-amine], for which the “Cytotoxic at 30 μM” value in data set [1] is “Yes”. Moreover, the IC50 in data set [2] (MDCK cells) came out at 3.8 µM. For the same compound, the negative-log EC50 (pEC50) in data set [2] (setting [3]) was 5.42. Moreover, the Emax in data set [2] (MDCK cells, 48 h) is recorded as 0.695; in data set [2] (MDCK cells, 48 h, listed as 15f), 0.70 ± 0.02.
Consider `C[C@H](c1ccc(Cl)cc1)N(CC=C(c1ccccc1)c1ccccc1)CCN1CCCC1` [NY0519, (R)-N-(1-(4-chlorophenyl)ethyl)-3,3-diphenyl-N-(2-(pyrrolidin-1-yl)ethyl)prop-2-en-1-amine], for which the “Cytotoxic at 30 μM” value in data set [1] is listed as “Yes”. The pEC50 in data set [2] (setting [3]) is 5.36. The Emax in data set [2] (MDCK cells, 48 h) was determined as 0.553.
As to `COc1ccc([C@@H](C)N(CC=C(c2ccccc2)c2ccccc2)C(=O)NC2CCCCC2)cc1` [NY0521, (R)-3-cyclohexyl-1-(3,3-diphenylallyl)-1-(1-(4-methoxyphenyl)ethyl)urea], the “Cytotoxic at 30 μM” value in data set [1] was “No”. Besides, the Emax in data set [2] (MDCK cells, 48 h) was 0.816.
For the compound `C[C@H](c1ccc([N+](=O)[O-])cc1)N(CC=C(c1ccccc1)c1ccccc1)CCN1CCN(C)CC1` [NY0522, (R)-N-(2-(4-methylpiperazin-1-yl)ethyl)-N-(1-(4-nitrophenyl)ethyl)-3,3-diphenylprop-2-en-1-amine], the “Cytotoxic at 30 μM” value in data set [1] is “Yes”. For the same compound, the IC50 in data set [2] (MDCK cells) turned out to be 5.2 µM. The pEC50 in data set [2] (setting [3]) is 5.29. Further, the Emax in data set [2] (MDCK cells, 48 h) is given as 0.621; in data set [2] (MDCK cells, 48 h, listed as 15h) it was 0.62 ± 0.02.
As to `C[C@@H](NCCN1c2ccccc2CCc2ccccc21)c1ccc(F)cc1` [NY0552, (R)-2-(10,11-dihydro-5H-dibenzo[b,f]azepin-5-yl)-N-(1-(4-fluorophenyl)ethyl)ethan-1-amine], in data set [1], the “Cytotoxic at 30 μM” value is “No”. Further, the negative-log EC50 (pEC50) in data set [2] (setting [3]) was 5.39. Besides, the Emax in data set [2] (MDCK cells, 48 h) was 0.426.
Regarding `C[C@@H](NCCN1c2ccccc2CCc2ccccc21)c1ccccc1` [NY0553, (R)-2-(10,11-dihydro-5H-dibenzo[b,f]azepin-5-yl)-N-(1-phenylethyl)ethan-1-amine], the “Cytotoxic at 30 μM” value in data set [1] is “No”. In addition, the Emax in data set [2] (MDCK cells, 48 h) was 0.452.
For `COC(=O)[C@@H](c1ccccc1)N(CC=C(c1ccccc1)c1ccccc1)C(=O)NC(C)(C)C` [NY0554, methyl (R)-2-(3-(tert-butyl)-1-(3,3-diphenylallyl)ureido)-2-phenylacetate], the “Cytotoxic at 30 μM” value in data set [1] is on record as “Yes (even”. Also, the pEC50 in data set [2] (setting [3]) was 5.92. This compound also gave an Emax in data set [2] (MDCK cells, 48 h) of 0.327.
Regarding `O=C(O)[C@H](NCC=C(c1ccccc1)c1ccccc1)c1ccccc1` [NY0555, (R)-2-((3,3-diphenylallyl)amino)-2-phenylacetic acid], the “Cytotoxic at 30 μM” value in data set [1] is recorded as “No”. The pEC50 in data set [2] (setting [3]) is 5.36. Further, the Emax in data set [2] (MDCK cells, 48 h) is given as 0.332.

The values are drawn from patent US12043602B2, “Fendiline derivatives” (The Board of Regents of the University of Texas System, priority 2019, dated 2024).
